How the values were obtained:
[1] = target: EGFR-pTyr^978 peptide PQRpYLVIQGD; conditions: peptide EGFR-pTyr^978 PQRpYLVIQGD; read-out: equilibrium dissociation constant (Kd); cited from earlier work
[2] = target: VEGFR1-pTyr^1213 peptide DVRpYVNAAKF; conditions: peptide VEGFR1-pTyr^1213 DVRpYVNAAKF; read-out: equilibrium dissociation constant (Kd); cited from earlier work
[3] = target: RSKL-pTyr^423 peptide YQHpYDLDLKD; conditions: peptide RSKL-pTyr^423 YQHpYDLDLKD; read-out: equilibrium dissociation constant (Kd); cited from earlier work
[4] = system: mixture of 54 different pTyr-including peptides derived from 54 TK activation loops; assay: Capture of pTyr-including peptides from a mixture of TK activation loop peptides, scheduled PRM; format: binding; conditions: for number of the 54 pTyr-including peptides captured / detected by PRM: 10 nmole SH2 domain, 10 pmole each peptide
Experimental: Equal molar amounts (10 nmole) of the wild-type (wt) human Src SH2 domain and the DM and TrM human Src SH2 Superbinders (SEQ ID NO: 14 and 5, respectively) expressed with His6 and GST tags were used to capture pTyr-including peptides from a mixture of 54 different pTyr-including peptides (10 pmole each) derived from 54 TK activation loops. The isolated peptides were identified by PRM and quantified based on the corresponding MS peak area. 1.8% of the eluted peptides were injected into a Q-Exactive (Thermo Fisher) preceded with a nano-LC system.
Shown are the amounts of pTyr-including peptides captured, based on the corresponding peak area of PRM signal, by each of the parent human Src SH2 domain and the DM and TrM human Src SH2 Superbinders.

[5] = target: ShcA-pTyr^317 peptide DPSpYVNVQNL; conditions: peptide ShcA-pTyr^317 DPSpYVNVQNL; read-out: equilibrium dissociation constant (Kd); cited from earlier work
[6] = target: EGFR-pTyr^1110 peptide NPVpYHNQPLN; conditions: peptide EGFR-pTyr^1110 NPVpYHNQPLN; read-out: equilibrium dissociation constant (Kd); cited from earlier work
[7] = target: ShcA-pTyr^239 peptide DHQpYYNDFPG; conditions: peptide ShcA-pTyr^239 DHQpYYNDFPG; read-out: equilibrium dissociation constant (Kd); cited from earlier work
[8] = target: MidT-pTyr^324 peptide EPQpYEEIPIYL; conditions: peptide MidT-pTyr^324 EPQpYEEIPIYL; read-out: equilibrium dissociation constant (Kd); cited from earlier work
[9] = target: Designed peptide GGpYGG; conditions: read-out: equilibrium dissociation constant (Kd); cited from earlier work
[10] = BLK (pTyr389) IIDSEpYTAQEGAK, fragment ion b2
[11] = BMX (pTyr566) YVLDDQpYVSSVGTK, fragment ion b2
[12] = BTK (pTyr551) YVLDDEpYTSSVGSK, fragment ion b2
[13] = DDR1 (pTyr796/797) NLYAGDpYpYR, fragment ion b2
[14] = DDR2 (pTyr740/741) NLYSGDpYpYR, fragment ion y6
[15] = EPHA1 (pTyr781) LLDDFDGTpYETQGGK, fragment ion y9
[16] = EPHA2 (pTyr772) VLEDDPEATpYTTSGGK, fragment ion y11
[17] = EPHA3 (pTyr779) VLEDDPEAApYTTR, fragment ion y8
[18] = EPHA6 (pTyr830) VLEDDPEAApYTTTGGK, fragment ion b2
[19] = EPHA8 (pTyr793) VLEDDPDAApYTTTGGK, fragment ion y11
[20] = EPHB1 (pTyr778) YLQDDTSDPTpYTSSLGGK, fragment ion y10
[21] = EPHB2 (pTyr780) FLEDDTSDPTpYTSALGGK, fragment ion Y3
[22] = EPHB3 (pTyr792) FLEDDPSDPTpYTSSLGGK, fragment ion y10
[23] = EPHB4 (pTyr774) FLEENSSDPTpYTSSLGGK, fragment ion y10
[24] = ERBB2 (pTyr877) LLDIDETEpYHADGGK, fragment ion b3
[25] = ERBB3 (pTyr866) QLLpYSEAK, fragment ion y2
[26] = FER (pTyr714) QEDGGVpYSSSGLK, fragment ion y7
[27] = FES (pTyr713) EEADGVpYAASGGLR, fragment ion y8
[28] = FGFR1 (pTyr653/654) DIHHIDpYpYK, fragment ion b6
[29] = FGFR2 (pTyr656/657) DINNIDpYpYK, fragment ion y4
[30] = FGFR3 (pTyr647/648) DVHNLDpYpYK, fragment ion b3
[31] = FGFR4 (pTyr642/643) GVHHIDpYpYK, fragment ion b3
[32] = FRK (pTyr387) VDNEDIpYESR, fragment ion y6
[33] = GSK3 (pTyr279/216) GEPNVSpYICSR, fragment ion y6
[34] = HCK (pTyr411) VIEDNEpYTAR, fragment ion b2
[35] = INSRR (pTyr1145/1146) DVYETDpYpYR, fragment ion y5
[36] = ITK (pTyr512) FVLDDQpYTSSTGTK, fragment ion y11
[37] = JAK1 (pTyr1034/1035) EpYpYTVK, fragment ion y2
[38] = JAK2 (pTyr221) IQDpYHILTR, fragment ion Y3
[39] = JAK3 (pTyr980/981) DpYpYVVR, fragment ion y2
[40] = KIT (pTyr823) NDSNpYVVK, fragment ion b2
[41] = LMTK2 (pTyr295) EDpYIETDDK, fragment ion b2
[42] = LMTK3 (pTyr296/297) EDpYpYLTPER, fragment ion y3
[43] = MERTK (pTyr753/754) IYSGDpYpYR, fragment ion b2
[44] = MET (pTyr1234/1235) EpYpYSVHNK, fragment ion y2
[45] = MUSK (pTyr755/756) NIYSADpYpYK, fragment ion y2
[46] = NTRK1 (pTyr680/681) DIYSTDpYpYR, fragment ion b2
[47] = NTRK2 (pTyr706/707) DVYSTDpYpYR, fragment ion y4
[48] = PGFRB (pTyr857) DSNpYISK, fragment ion y2
[49] = PTK7 (pTyr960/961) DVYNSEpYpYHFR, fragment ion b2
[50] = RET (pTyr905) DVYEEDSpYVK, fragment ion b2
[51] = RON (pTyr1238/1239) EpYpYSVQQHR, fragment ion y4
[52] = ROR1 (pTyr645/646) EIYSADpYpYR, fragment ion y6
[53] = ROR2 (pTyr645/646) EVYAADpYpYK, fragment ion y5
[54] = SRC (pTyr419) LIEDNEpYTAR, fragment ion b2
[55] = SRMS (pTyr380) DDIpYSPSSSSK, fragment ion y8
[56] = TEC (pTyr519) YVLDDQpYTSSSGAK, fragment ion b2
[57] = TIE1 (pTyr1007) GEEVpYVK, fragment ion b2
[58] = TIE2 (pTyr992) GQEVpYVK, fragment ion b2
[59] = TXK (pTyr420) YVLDDEpYVSSFGAK, fragment ion b2
[60] = TYK2 (pTyr1054/1055) AVPEGHEpYpYR, fragment ion y6
[61] = VGFR1 (pTyr1053) NPDpYVR, fragment ion y3
[62] = VGFR2 (pTyr1059) DPDpYVR, fragment ion Y3

Thr8Val/Cys10Ala: double-mutant human Src SH2 domain
Kd [1]: 390 nM
Kd [2]: 1800 nM
Kd [3]: 900 nM
number of the 54 pTyr-including peptides captured / detected by PRM [4]: 32
PRM signal peak area [4, 10]: 0
PRM signal peak area [4, 11]: 0
PRM signal peak area [4, 12]: 18,246
PRM signal peak area [4, 13]: 43,173
PRM signal peak area [4, 14]: 16,232
PRM signal peak area [4, 15]: 12,335
PRM signal peak area [4, 16]: 4,858
PRM signal peak area [4, 17]: 0
PRM signal peak area [4, 18]: 51,066
PRM signal peak area [4, 19]: 57,102
PRM signal peak area [4, 20]: 0
PRM signal peak area [4, 21]: 98,045
PRM signal peak area [4, 22]: 14,654
PRM signal peak area [4, 23]: 0
PRM signal peak area [4, 24]: 4,642
PRM signal peak area [4, 25]: 151,587
PRM signal peak area [4, 26]: 0
PRM signal peak area [4, 27]: 0
PRM signal peak area [4, 28]: 28,967
PRM signal peak area [4, 29]: 39,469
PRM signal peak area [4, 30]: 64,641
PRM signal peak area [4, 31]: 29,983
PRM signal peak area [4, 32]: 0
PRM signal peak area [4, 33]: 0
PRM signal peak area [4, 34]: 0
PRM signal peak area [4, 35]: 7,794
PRM signal peak area [4, 36]: 0
PRM signal peak area [4, 37]: 46,193
PRM signal peak area [4, 38]: 39,232
PRM signal peak area [4, 39]: 10,521
PRM signal peak area [4, 40]: 0
PRM signal peak area [4, 41]: 1,124
PRM signal peak area [4, 42]: 78,610
PRM signal peak area [4, 43]: 0
PRM signal peak area [4, 44]: 70,811
PRM signal peak area [4, 45]: 0
PRM signal peak area [4, 46]: 30,204
PRM signal peak area [4, 47]: 22,794
PRM signal peak area [4, 48]: 0
PRM signal peak area [4, 49]: 4,843
PRM signal peak area [4, 50]: 0
PRM signal peak area [4, 51]: 17,370
PRM signal peak area [4, 52]: 27,661
PRM signal peak area [4, 53]: 60,460
PRM signal peak area [4, 54]: 0
PRM signal peak area [4, 55]: 0
PRM signal peak area [4, 56]: 4,818
PRM signal peak area [4, 57]: 0
PRM signal peak area [4, 58]: 0
PRM signal peak area [4, 59]: 46,128
PRM signal peak area [4, 60]: 9,679
PRM signal peak area [4, 61]: 0
PRM signal peak area [4, 62]: 0
Kd [5]: 390 nM
Kd [6]: 4500 nM
Kd [7]: 100 nM
Kd [8]: 27 nM
Kd [9]: 25000 nM

Wild type: wild-type (parent) human Src SH2 domain; SEQ ID NO: 4, His6/GST-tagged form SEQ ID NO: 10 [reference compound]
Kd [1]: 3700 nM
Kd [2]: 6500 nM
Kd [3]: 3900 nM
number of the 54 pTyr-including peptides captured / detected by PRM [4]: 22
PRM signal peak area [4, 10]: 0
PRM signal peak area [4, 11]: 0
PRM signal peak area [4, 12]: 4,214
PRM signal peak area [4, 13]: 47,729
PRM signal peak area [4, 14]: 15,251
PRM signal peak area [4, 15]: 0
PRM signal peak area [4, 16]: 0
PRM signal peak area [4, 17]: 0
PRM signal peak area [4, 18]: 2,742
PRM signal peak area [4, 19]: 0
PRM signal peak area [4, 20]: 0
PRM signal peak area [4, 21]: 10,833
PRM signal peak area [4, 22]: 0
PRM signal peak area [4, 23]: 0
PRM signal peak area [4, 24]: 0
PRM signal peak area [4, 25]: 41,881
PRM signal peak area [4, 26]: 0
PRM signal peak area [4, 27]: 0
PRM signal peak area [4, 28]: 28,495
PRM signal peak area [4, 29]: 51,625
PRM signal peak area [4, 30]: 103,678
PRM signal peak area [4, 31]: 29,764
PRM signal peak area [4, 32]: 0
PRM signal peak area [4, 33]: 0
PRM signal peak area [4, 34]: 0
PRM signal peak area [4, 35]: 0
PRM signal peak area [4, 36]: 0
PRM signal peak area [4, 37]: 58,254
PRM signal peak area [4, 38]: 0
PRM signal peak area [4, 39]: 23,291
PRM signal peak area [4, 40]: 0
PRM signal peak area [4, 41]: 0
PRM signal peak area [4, 42]: 29,887
PRM signal peak area [4, 43]: 0
PRM signal peak area [4, 44]: 26,824
PRM signal peak area [4, 45]: 47,647
PRM signal peak area [4, 46]: 21,736
PRM signal peak area [4, 47]: 39,632
PRM signal peak area [4, 48]: 0
PRM signal peak area [4, 49]: 0
PRM signal peak area [4, 50]: 0
PRM signal peak area [4, 51]: 5,434
PRM signal peak area [4, 52]: 32,356
PRM signal peak area [4, 53]: 85,894
PRM signal peak area [4, 54]: 0
PRM signal peak area [4, 55]: 0
PRM signal peak area [4, 56]: 0
PRM signal peak area [4, 57]: 0
PRM signal peak area [4, 58]: 0
PRM signal peak area [4, 59]: 1,519
PRM signal peak area [4, 60]: 11,551
PRM signal peak area [4, 61]: 0
PRM signal peak area [4, 62]: 0
Kd [5]: 2200 nM
Kd [6]: 6900 nM
Kd [7]: 700 nM
Kd [8]: 130 nM
Kd [9]: > 30000 nM

Reference: US11274129B2, “Methods for protein tyrosine phosphorylation profiling with variant SH2 domains” (priority 2016, dated 2022)
